Laboratory results as given in patent publication US9090593B2, “Bicyclic compounds as Pim inhibitors” (AMGEN INC., priority 2010, dated 2015).

Assays:
KMS-Cell = experiment: KMS cell IC50 (Table 4); assay type: cell-based; conditions: KMS cells
[1] = biological target: T1, full length recombinant Pim-2 protein (Homo sapiens, UniProt Q9P1W9); experiment: Pim-2 enzyme assay (HTRF, phosphorylation of biotinylated-BAD (S112) peptide); assay type: biochemical; conditions: read-out: Pim2_IC50
T1 construct: by full length recombinant Pim-1, Pim-2, or Pim-3 protein; hexahistidine tag followed by a thrombin cleavage site (N); made in house; host or cells: Sf9 (baculovirus) or E. coli (pET28)
T1 sequence (Q9P1W9 whole entry): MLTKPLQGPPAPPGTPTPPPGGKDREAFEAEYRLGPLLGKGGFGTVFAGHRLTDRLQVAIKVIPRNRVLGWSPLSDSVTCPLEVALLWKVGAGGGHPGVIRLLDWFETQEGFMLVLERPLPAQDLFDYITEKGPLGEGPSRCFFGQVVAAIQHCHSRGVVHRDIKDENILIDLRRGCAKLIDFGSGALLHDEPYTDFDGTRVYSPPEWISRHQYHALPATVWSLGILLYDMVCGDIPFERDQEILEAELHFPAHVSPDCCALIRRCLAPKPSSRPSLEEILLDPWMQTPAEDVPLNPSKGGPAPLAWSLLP
How it was run: (§1)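 HTRF readout (europium anti-pBAD S112 antibody, streptavidin-APC) of biotin-BAD peptide phosphorylation by recombinant full-length Pim-1 or Pim-2, buffer 60 mM Hepes pH 7.0, 2 mM DTT, 0.05% BSA. Enzymes were His6-tagged, from baculovirus/Sf9 or E. coli.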

[2] = biological target: T2, full length recombinant Pim-1 protein (Homo sapiens, UniProt P11309); experiment: Pim-1 enzyme assay (HTRF, phosphorylation of biotinylated-BAD (S112) peptide); assay type: biochemical; conditions: read-out: Pim_1_IC50
T2 construct: by full length recombinant Pim-1, Pim-2, or Pim-3 protein; hexahistidine tag followed by a thrombin cleavage site (N); made in house; host or cells: Sf9 (baculovirus) or E. coli (pET28)
T2 sequence (P11309 whole entry): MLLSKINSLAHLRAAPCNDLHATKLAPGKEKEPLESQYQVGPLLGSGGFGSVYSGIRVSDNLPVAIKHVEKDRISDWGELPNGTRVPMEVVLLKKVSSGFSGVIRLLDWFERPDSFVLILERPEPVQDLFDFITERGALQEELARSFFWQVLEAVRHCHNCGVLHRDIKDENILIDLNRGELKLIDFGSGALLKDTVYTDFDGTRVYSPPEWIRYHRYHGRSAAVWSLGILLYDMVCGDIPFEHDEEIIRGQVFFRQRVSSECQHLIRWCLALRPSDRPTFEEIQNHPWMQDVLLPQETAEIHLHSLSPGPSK
How it was run: as §1

[3] = biological target: T3, Pim-2 stably transfected into the U2OS human osteogenic sarcoma line (Homo sapiens, UniProt Q9P1W9); experiment: Pim cell assay, phospho-BAD normalized against total BAD, U2OS stably transfected with Pim-2; assay type: cell-based; conditions: U2OS stably transfected with Pim-2; phospho-BAD normalized against total BAD; 29 min incubation; read-out: Pim2_Cell_IC50_
T3 construct: expressed in transfected cells; host or cells: U2OS human osteogenic sarcoma line
T3 sequence (Q9P1W9 whole entry): as the sequence (Q9P1W9 whole entry) above
How it was run: (§2)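 Read-out is phospho-BAD relative to total BAD, by MSD electrochemiluminescence on lysates, expressed as % phosphoprotein = (2×phospho)/(phospho+total)×100. Engineered U2OS lines carrying stably transfected Pim-1 or Pim-2 received 10-point compound dilutions at 0.3% final DMSO after overnight culture at 37 °C; DMSO-only wells served as high control.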

[4] = biological target: T4, Pim-1 stably transfected into the U2OS human osteogenic sarcoma line (Homo sapiens, UniProt P11309); experiment: Pim cell assay, phospho-BAD normalized against total BAD, U2OS stably transfected with Pim-1; assay type: cell-based; conditions: U2OS stably transfected with Pim-1; phospho-BAD normalized against total BAD; 29 min incubation; read-out: Pim1_Cell_IC50_
T4 construct: expressed in transfected cells; host or cells: U2OS human osteogenic sarcoma line
T4 sequence (P11309 whole entry): as the sequence (P11309 whole entry) above
How it was run: as §2

Compound	IC50 (KMS-Cell) [µM]	IC50 [1] [µM]	IC50 [2] [µM]	IC50 [3] [µM]	IC50 [4] [µM]
CC1CCNCC1Oc1cncc(-c2n[nH]c3ccc(-c4c(F)cccc4F)cc23)n1 (single isomer, unassigned) [Example 424]	6.28	0.004	0.001	2.47	0.433
O=c1cc(-c2n[nH]c3ccc(-c4c(F)cccc4F)cc23)nc(N[C@@H]2CCCNC2)[nH]1 [Example 282, (R)-6-(5-(2,6-difluorophenyl)-1H-indazol-3-yl)-2-(piperidin-3-ylamino)pyrimidin-4(3H)-one]	2.65	–	–	> 10	1.17
c1cc2[nH]nc(-c3cncc(OC4CCNCC4)n3)c2cc1-c1cncc(C2CC2)n1 [Example 364, 5-(6-cyclopropyl-2-pyrazinyl)-3-(6-(4-piperidinyloxy)-2-pyrazinyl)-1H-indazole]	5.85	0.005	–	3.46	0.022
CC[C@@H]1CCNC[C@H]1Oc1cncc(-c2n[nH]c3ccc(-c4c(F)cccc4F)cc23)n1 [Example 397]	14.3	0.144	0.02	–	–
CC[C@H]1CCNC[C@@H]1Oc1cncc(-c2n[nH]c3ccc(-c4c(F)cccc4F)cc23)n1 [Example 398, 5-(2,6-difluorophenyl)-3-(6-(((3R,4S)-4-ethyl-3-piperidinyl)oxy)-2-pyrazinyl)-1H-indazole]	10.7	0.012	0.009	–	–
Clc1ccccc1-c1ccc2[nH]nc(-c3cncc(O[C@H]4CNCCC45CC5)n3)c2c1 [Example 406]	2.36	0.001	0.002	5.31	0.46
N#Cc1ccncc1-c1ccc2[nH]nc(-c3cncc(O[C@H]4CNCCC45CC5)n3)c2c1 [Example 411]	1.22	0.012	0.004	–	–
Fc1ccc(Cl)cc1-c1ccc2[nH]nc(-c3cncc(O[C@H]4CNCCC45CC5)n3)c2c1 [Example 443]	4.64	0.005	0.001	–	–
c1cc2[nH]nc(-c3cncc(O[C@H]4CNCCC45CC5)n3)c2cc1C1CCCC1 [Example 447]	3.16	0.004	0.004	–	–
Fc1ccnc(F)c1-c1ccc2[nH]nc(-c3cncc(O[C@H]4CNCCC45CC5)n3)c2c1 [Example 451]	1.47	0.009	0.003	–	–
c1cc2[nH]nc(-c3cncc(O[C@H]4CNCCC45CC5)n3)c2cc1C1CCC1 [Example 453]	4.19	0.007	0.004	–	–
N#Cc1ccc(-c2ccc3[nH]nc(-c4cncc(O[C@H]5CNCCC56CC6)n4)c3c2)c(F)c1 [Example 456]	5.49	0.003	0.004	–	–
NS(=O)(=O)c1ccc(-c2ccc3[nH]nc(-c4cncc(O[C@H]5CNCCC56CC6)n4)c3c2)c(F)c1 [Example 463]	1.61	0.001	0.002	–	–
COC(=O)c1ccc2[nH]nc(-c3ccnc(NC4CCNCC4)n3)c2c1 [Example 489]	1.69	0.003	0.002	4.48	0.202
O=C(O)c1ccc2[nH]nc(-c3cncc(N[C@@H]4CCCNC4)n3)c2c1 [Example 495]	> 15.8	0.159	0.07	–	–
O=c1cc(-c2n[nH]c3ccc(-c4c(F)cccc4F)cc23)nc(O[C@@H]2CCCNC2)[nH]1 [Example 529]	2.62	0.002	0.002	–	–
c1coc(-c2ccc3[nH]nc(-c4cncc(N[C@@H]5CCCNC5)n4)c3c2)n1 [Example 541]	6.04	0.024	0.002	–	–
O=c1cc(-c2n[nH]c3ccc(-c4c(F)cccc4F)cc23)nc(OC2CNCCC2F)[nH]1 (stereo not drawn) [Example 554]	6.26	0.01	0.007	–	–

More lines, now with the values ahead:

IC50 (KMS-Cell) [µM]	IC50 [1] [µM]	IC50 [2] [µM]	IC50 [3] [µM]	IC50 [4] [µM]	Compound
1.3	0.001	0.001	–	–	N#Cc1ccccc1-c1ccc2[nH]nc(-c3cncc(O[C@H]4CNCCC45CC5)n3)c2c1 [Example 408]
2.68	0.001	0.001	–	–	N#Cc1cccc(F)c1-c1ccc2[nH]nc(-c3cncc(O[C@H]4CNCCC45CC5)n3)c2c1 [Example 409]
1.75	0.007	0.009	–	–	N#Cc1ncccc1-c1ccc2[nH]nc(-c3cncc(O[C@H]4CNCCC45CC5)n3)c2c1 [Example 410]
6.43	0.004	0.002	–	–	Fc1ccc(F)c(-c2ccc3[nH]nc(-c4cncc(O[C@H]5CNCCC56CC6)n4)c3c2)c1 [Example 442]
5.05	0.028	0.004	–	–	Fc1cccc(F)c1-c1ccc2[nH]nc(-c3cncc(OC4CNCC5CC54)n3)c2c1 (stereo not drawn) [Example 444]
1.73	0.005	0.003	–	–	c1cc2[nH]nc(-c3cncc(O[C@H]4CNCCC45CC5)n3)c2cc1C1CC1 [Example 446]
9.41	0.097	0.02	–	–	Fc1cccc(F)c1-c1ccc2[nH]nc(-c3cncc(OC4CNCC5CC54)n3)c2c1 (stereo not drawn) [Example 452]
0.546	0.003	0.003	–	–	CS(=O)(=O)c1cc(F)c(-c2ccc3[nH]nc(-c4cncc(O[C@H]5CNCCC56CC6)n4)c3c2)c(F)c1 [Example 467]
1.45	0.008	0.004	–	–	COC(=O)c1ccc2[nH]nc(-c3ccnc(N4CCC(N)CC4)n3)c2c1 [Example 491]
> 15.8	0.079	0.013	> 31.6	0.354	CN(C)c1nc(-c2c[nH]c3ccc(-c4cncc(C5CC5)n4)cc23)cc(=O)[nH]1 [Example 527]
15.9	0.024	0.002	–	–	c1coc(-c2ccc3[nH]cc(-c4cncc(N[C@@H]5CCCNC5)n4)c3c2)n1 [Example 542]
